Values of other authors in article PMC5143208 (American journal of transplantation : official journal of …, 2016).

System: CCR2
Conditions: in vitro

d(LGTFLKC) [ECL1i]
binding to CCR2: selectively bind CCR2 in a non-competitive way
